Laboratory results taken from ChEMBL document CHEMBL4706653, “Ultra-short lipopeptides against gram-positive bacteria while alleviating antimicrobial resistance” (Eur J Med Chem, 2021).
≈ marks a conversion by molar mass, not a printed value. Calls of active or inactive are those of the source. The calls are words filed in the database; no cut-off is given here. Residues, ends and D or L forms follow the SMILES beside them. *: point of attachment. Myristoyl = CCCCCCCCCCCCCC(=O)*; Lauroyl = CCCCCCCCCCCC(=O)*

What was measured:
[1] = system: Staphylococcus aureus; assay: Antimicrobial activity against Staphylococcus aureus ATCC 25923 after 18 hrs by broth microdilution method; type: functional
[2] = system: Bacillus subtilis; assay: Antimicrobial activity against Bacillus subtilis ATCC 23857 after 18 hrs by broth microdilution method; type: functional
[3] = system: Staphylococcus aureus; assay: Antimicrobial activity against methicillin-resistant Staphylococcus aureus 75 after 18 hrs by broth microdilution method; type: functional
[4] = system: Staphylococcus aureus; assay: Antimicrobial activity against methicillin-resistant Staphylococcus aureus 113 after 18 hrs by broth microdilution method; type: functional
[5] = system: Staphylococcus aureus; assay: Antimicrobial activity against Staphylococcus aureus ATCC 25923 after 18 hrs in presence of NaCl by broth microdilution method; type: functional
[6] = system: Staphylococcus aureus; assay: Antimicrobial activity against Staphylococcus aureus ATCC 25923 after 18 hrs in presence of NH4Cl by broth microdilution method; type: functional
[7] = system: Staphylococcus aureus; assay: Antimicrobial activity against Staphylococcus aureus ATCC 25923 after 18 hrs in presence of MgCl2 by broth microdilution method; type: functional
[8] = system: Staphylococcus aureus; assay: Antimicrobial activity against Staphylococcus aureus ATCC 25923 after 18 hrs in presence of FeCl3 by broth microdilution method; type: functional
[9] = system: Staphylococcus aureus; assay: Antimicrobial activity against Staphylococcus aureus ATCC 25923 after 18 hrs in presence of 2.5% serum by broth microdilution method; type: functional
[10] = system: Staphylococcus aureus; assay: Ratio of MIC for antimicrobial activity against Staphylococcus aureus ATCC 25923 in presence of 5% serum to MIC for antimicrobial activity against Staphylococcus aureus ATCC 25923 in absence of serum; type: functional
[11] = system: Staphylococcus aureus; assay: Antimicrobial activity against Staphylococcus aureus ATCC 25923 at 0.5 times MIC after 15 passages by broth microdilution method; type: functional, organism-based
[12] = system: Staphylococcus aureus; assay: Potentiation of ciprofloxacin-induced antimicrobial activity against Staphylococcus aureus ATCC 25923 at 0.5 times MIC after 15 passages by broth microdilution method; type: functional, organism-based
[13] = system: Staphylococcus aureus; assay: Antimicrobial activity against ciprofloxacin-resistant Staphylococcus aureus ATCC 25923 after 18 hrs by broth microdilution method; type: functional, organism-based
[14] = system: Staphylococcus epidermidis; assay: Antimicrobial activity against ciprofloxacin-resistant Staphylococcus epidermidis ATCC 12228 after 18 hrs by broth microdilution method; type: functional, organism-based
[15] = system: Staphylococcus aureus; assay: Antimicrobial activity against ciprofloxacin-resistant Staphylococcus aureus ATCC 25923 at 0.5 times MIC after 15 passages by broth microdilution method; type: functional, organism-based
[16] = system: Staphylococcus epidermidis; assay: Antimicrobial activity against ciprofloxacin-resistant Staphylococcus epidermidis ATCC 12228 at 0.5 times MIC after 15 passages by broth microdilution method; type: functional, organism-based
[17] = system: Staphylococcus epidermidis; assay: Potentiation of ciprofloxacin-induced antimicrobial activity against ciprofloxacin-resistant Staphylococcus epidermidis ATCC 12228 assessed as ciprofloxacin MIC at 0.5 times MIC after 15 passages by broth microdilution method; type: functional
[18] = system: Staphylococcus epidermidis; assay: Antimicrobial activity against ciprofloxacin-resistant Staphylococcus epidermidis ATCC 12228 at 0.5 to 8 uM measured after 18 hrs in presence of ciprofloxacin by checkerboard assay; type: functional, organism-based; details: dose 0.5-8 µM
[19] = system: Staphylococcus aureus; assay: Antimicrobial activity against ciprofloxacin-resistant Staphylococcus aureus ATCC 25923 at 0.5 to 8 uM measured after 18 hrs in presence of EtBr by checkerboard assay; type: functional, organism-based; details: dose 0.5-8 µM
[20] = system: Staphylococcus aureus; assay: Antimicrobial activity against Staphylococcus aureus ATCC 25923 after 18 hrs in presence of polymyxin B by checkerboard assay; type: functional, organism-based
[21] = system: Staphylococcus epidermidis; assay: Antimicrobial activity against Staphylococcus epidermidis ATCC 12228 after 18 hrs in presence of polymyxin B by checkerboard assay; type: functional, organism-based
[22] = system: Staphylococcus epidermidis; assay: Antimicrobial activity against ciprofloxacin-resistant Staphylococcus epidermidis ATCC 12228 after 18 hrs in presence of polymyxin B by checkerboard assay; type: functional, organism-based
[23] = system: Staphylococcus aureus; assay: Antimicrobial activity against methicillin-resistant Staphylococcus aureus 75 measured after 18 hrs in presence of polymyxin B by checkerboard assay; type: functional, organism-based
[24] = system: Staphylococcus epidermidis; assay: Potentiation of ciprofloxacin-induced antimicrobial activity against ciprofloxacin-resistant Staphylococcus epidermidis ATCC 12228 assessed as change in ciprofloxacin MIC at 4 uM after 18 hrs by broth microdilution method relative to ciprofloxacin MIC; type: functional
[25] = system: Staphylococcus aureus; assay: Potentiation of ciprofloxacin-induced antimicrobial activity against methicillin-resistant Staphylococcus aureus 75 assessed as change in ciprofloxacin MIC at 2 uM after 18 hrs by broth microdilution method relative to ciprofloxacin MIC; type: functional
[26] = system: Staphylococcus aureus; assay: Potentiation of ciprofloxacin-induced antimicrobial activity against ciprofloxacin-resistant Staphylococcus aureus ATCC 25923 at 1 uM after 18 hrs by broth microdilution method; type: functional, organism-based
[27] = system: Staphylococcus aureus; assay: Potentiation of ciprofloxacin-induced antimicrobial activity against methicillin-resistant Staphylococcus aureus 75 at 0.5 uM after 18 hrs by broth microdilution method; type: functional, organism-based
[28] = system: Staphylococcus aureus; assay: Antibiofilm activity against Staphylococcus aureus ATCC 25923 at 0.5 to 8 uM after 24 hrs by crystal violet staining based assay; type: functional, organism-based; details: dose 0.5-8 µM
[29] = system: Staphylococcus aureus; assay: Antibiofilm activity against Staphylococcus aureus ATCC 25923 at 0.5 to 8 uM after 24 hrs in presence of ciprofloxacin by checkerboard assay; type: functional, organism-based; details: dose 0.5-8 µM
[30] = system: Staphylococcus aureus; assay: Antibiofilm activity against ciprofloxacin-resistant Staphylococcus aureus ATCC 25923 at 0.5 to 8 uM after 24 hrs in presence of ciprofloxacin by checkerboard assay; type: functional, organism-based; details: dose 0.5-8 µM
[31] = system: Staphylococcus aureus; assay: Antibiofilm activity against Staphylococcus aureus ATCC 25923 assessed as biofilm thickness at 8 uM after 24 hrs using LIVE/LEAD (SYTO-9/PI) staining by confocal laser scanning microscopy based 3D image analysis (reference value: 55 micrometer); type: functional
[32] = system: Staphylococcus aureus; assay: Antibiofilm activity against Staphylococcus aureus ATCC 25923 preformed biofilm at 32 to 64 uM after 24 hrs by LIVE/DEAD (SYTO-9/PI) staining based confocal laser scanning microscopic analysis; type: functional, organism-based; details: dose 32-64 µM
[33] = system: Staphylococcus aureus; assay: Antibiofilm activity against Staphylococcus aureus ATCC 25923 preformed biofilm assessed as preformed biofilm thickness at 64 uM after 24 hrs using LIVE/LEAD (SYTO-9/PI) staining by confocal laser scanning microscopy based 3D image analysis (reference value: 56 micrometer); type: functional
[34] = system: Staphylococcus aureus; assay: Antibiofilm activity against Staphylococcus aureus ATCC 25923 preformed biofilm assessed as preformed biofilm thickness at 32 uM after 24 hrs using LIVE/LEAD (SYTO-9/PI) staining by confocal laser scanning microscopy based 3D image analysis (reference value: 56 micrometer); type: functional
[35] = Binding affinity to LTA (unknown origin) assessed as bacterial killing at 2 times MIC preincubated for 1 hr followed by Staphylococcus aureus ATCC 25923 addition and measured after 2 hrs by colony counting method; details: time 3.0 hrs
[36] = system: Cell membrane; assay: Induction of membrane disruption in Staphylococcus aureus ATCC 25923 assessed as PI-positive cells at 4 times MIC measured after 2 hrs by propidium iodide staining based flow cytometry relative to control
[37] = system: Cell membrane; assay: Induction of membrane disruption in Staphylococcus aureus ATCC 25923 assessed as membrane blebbing at 2 to 4 times MIC measured after 2 to 4 hrs by SEM analysis; type: subcellular; details: time 2-4 hrs
[38] = system: Cell membrane; assay: Induction of membrane disruption in Staphylococcus aureus ATCC 25923 assessed as increase in non-uniform cell debris level at 4 times MIC measured after 2 to 4 hrs by SEM analysis; type: subcellular; details: time 2-4 hrs
[39] = system: Cell membrane; assay: Induction of membrane disruption in Staphylococcus aureus ATCC 25923 assessed as cell lysis at 4 times MIC measured after 2 to 4 hrs by SEM analysis; type: subcellular; details: time 2-4 hrs

Row | Compound | MIC [1] [µM] | MIC [2] [µM] | MIC [3] [µM] | MIC [4] [µM] | MIC [5] [µM] | MIC [6] [µM] | MIC [7] [µM] | MIC [8] [µM] | MIC [9] [µM] | Ratio [10] | Activity [11] | Activity [12] | Activity [13] | Activity [14] | Activity [15] | Activity [16] | MIC [17] [µM] | Activity [18] | Activity [19] | Activity [20] | other results
1 | CCCCCCCCCCCC(=O)N[C@@H](CCCNC(=N)N)C(=O)N[C@@H](CCCNC(=N)N)C(=O)N[C@@H](Cc1c[nH]c2ccccc12)C(N)=O (Lauroyl-Arg-Arg-Trp-NH2) | 4 (≈ 2.79 µg/mL) | 4 (≈ 2.79 µg/mL) | 4 (≈ 2.79 µg/mL) | 2 (≈ 1.4 µg/mL) | 16 | 4 | 8 | 4 | 32 | 8 | Active | Active | Active | Active | Active | Active | 8 | Active | Active | Active | Activity [21]: Active; Activity [22]: Active; Activity [23]: Active; fold change (FC) [24]: 2; fold change (FC) [25]: 2; Activity [26]: inactive; Activity [27]: inactive; Activity [28]: Active; Activity [29]: inactive; Activity [30]: Active; Activity [31]: 20 um; Activity [32]: Active; Activity [33]: 40 um; Activity [34]: 30 um; Activity [35]: Active; Activity [36]: Active; Activity [37]: Active; Activity [38]: Active; Activity [39]: Active
2 | CCCCCCCCCCCCCC(=O)N[C@@H](CCCNC(=N)N)C(=O)N[C@@H](Cc1c[nH]c2ccccc12)C(=O)N[C@@H](Cc1c[nH]c2ccccc12)C(N)=O (Myristoyl-Arg-Trp-Trp-NH2) | 8 (≈ 6.05 µg/mL) | 4 (≈ 3.02 µg/mL) | 4 (≈ 3.02 µg/mL) | 4 (≈ 3.02 µg/mL) | 8 | 4 | 4 | 8 | 8 | 2 | Active | Active | Active | Active | Active | Active | 8 | Active | Active | Active | Activity [21]: Active; Activity [22]: Active; Activity [23]: Active; fold change (FC) [24]: 2; fold change (FC) [25]: 2; Activity [26]: inactive; Activity [27]: inactive; Activity [28]: Active; Activity [29]: inactive; Activity [30]: Active; Activity [31]: 16 um; Activity [32]: Active; Activity [33]: 24 um; Activity [34]: 40 um; Activity [35]: Active; Activity [36]: 88.9%; Activity [37]: Active; Activity [38]: Active; Activity [39]: Active
